From patent US11345702B1 (Myoforte Therapeutics, Inc., priority 2020, dated 2022)

Biological target: 15-PGDH/HPGD (Homo sapiens (Human), UniProt P15428)
Assay: hPGDH inhibitor screening biochemical assay
Conditions: read-out: hPGDH: Average IC50
Method: A hydroxyprostaglandin dehydrogenase inhibition screening biochemical assay can be performed to assess the synthesized inhibitors provided herein. Provided herein is an exemplary biochemical assay for hPGDH inhibitor screening.
The in vitro biochemical assay can be performed in white, 384 plates in total 20 μl reaction volume consisting of 10 nM of 15-PGDH/HPGD (R&D System #5660-DH), 15 μM Prostaglandin E2 (Sigma, Cat #P5640-10MG) and 0.25 mM (3-Nicotinamide adenine dinucleotide sodium salt (Sigma, Cat #N0632-5G) made in reaction buffer (50 mM Tris-HCl, pH 7.5, 0.01% Tween 20) at 10-point dose response curve for test/tool compounds. Briefly, 5 μl (4×) of compounds solution and 5 μl (final concentration, 10 nM) of enzyme solution is added to white 384 well plates and incubated for 10 mins at 37° C. 5 μl (4×) of Prostaglandin E2 and 5 μl (4×) of β-Nicotinamide adenine dinucleotide sodium salt is added to the wells and incubated for 10 mins at room temperature. Fluorescence is recorded at ex/em=340 nm/485 nm. The percentage (%) inhibition of enzyme activity was determined relative to positive control (1% DMSO) and IC50 was calculated using GraphPad prism software (four parameter-variable slope equation).

Sequence of 15-PGDH/HPGD (P15428 whole entry): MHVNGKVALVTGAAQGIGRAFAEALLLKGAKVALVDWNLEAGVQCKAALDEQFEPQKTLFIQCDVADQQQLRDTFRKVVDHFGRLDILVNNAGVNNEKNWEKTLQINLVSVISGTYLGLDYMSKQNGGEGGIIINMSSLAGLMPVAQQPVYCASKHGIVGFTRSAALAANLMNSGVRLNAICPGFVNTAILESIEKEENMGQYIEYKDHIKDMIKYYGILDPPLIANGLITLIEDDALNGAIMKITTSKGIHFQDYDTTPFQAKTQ

SMILES | IC50 [nM]
O=C(Nc1ccno1)c1ccc(-n2ccc3cc(C(=O)N4CCC(F)(F)CC4)cnc32)cn1 | < 100
N#Cc1ccc(-n2ccc3cc(C(=O)N4CC[C@H](F)C4)cnc32)cc1 (single isomer, unassigned) [MF-DH-574] | < 100
N#Cc1ccc(-n2ccc3cc(C(=O)N4CC[C@@H](F)C4)cnc32)cc1 (single isomer, unassigned) [MF-DH-575] | < 100
COc1ccc(-n2c(N)nc3cc(C(=O)N4CCC(F)CC4)cnc32)cc1 [MF-DH-115] | 100 to 1000
COc1ccc(-n2c(NC(C)=O)nc3cc(C(=O)N4CCC(F)CC4)cnc32)cc1 [MF-DH-116] | ≥ 1000
COc1ccc(-n2c(CCNC(C)=O)nc3cc(C(=O)N4CCC(F)CC4)cnc32)cc1 [MF-DH-117] | ≥ 1000
COc1cc(C(=O)N2CCC(F)CC2)ccc1COc1ccccc1Cl [MF-DH-118] | 100 to 1000
O=C(c1ccc(COc2ccccc2Cl)cn1)N1CCC(F)CC1 [MF-DH-121, (5-((2-chlorophenoxy)methyl)pyridin-2-yl)(4-fluoropiperidin-1-yl)methanone] | ≥ 1000
O=C(c1cnc2c(ccn2-c2cnccn2)c1)N1CCC(F)CC1 [MF-DH-123] | < 100
COc1ccc(Cn2cnc(-n3ccc4cc(C(=O)N5CCCCC5)cnc43)c2)cc1 [MF-DH-128] | 100 to 1000
COc1ccc(Cn2cc(-n3ccc4cc(C(=O)N5CCCCC5)cnc43)cn2)cc1 [MF-DH-129] | 100 to 1000
O=C(c1cnc2c(ccn2-c2ccncn2)c1)N1CCC(F)CC1 [MF-DH-131] | < 100
O=C(c1cnc2c(c1)c(Cl)cn2-c1ccncn1)N1CCC(F)CC1 [MF-DH-132] | 100 to 1000
O=C(c1cnc2c(ccn2-c2ccc(O)nc2)c1)N1CCC(F)CC1 [MF-DH-133] | < 100
O=C(c1cnc2c(ccn2-c2cccnc2)c1)N1CCC(F)CC1 [MF-DH-134] | < 100
O=C(c1cnc2c(c1)c(Cl)cn2-c1cccnc1)N1CCC(F)CC1 [MF-DH-135] | < 100
COc1ccc(-n2cnc3cc(C(=O)N4CC(F)C4)cnc32)cc1 [MF-DH-138] | 100 to 1000
Cn1cc(-n2ccc3cc(C(=O)N4CCC(F)CC4)cnc32)cn1 [MF-DH-139] | < 100
Cn1cc(-n2cc(Cl)c3cc(C(=O)N4CCC(F)CC4)cnc32)cn1 [MF-DH-140] | < 100
COc1ccc(-n2cnc3cc(C(=O)N4CCC(F)CC4)ccc32)nc1 [MF-DH-141] | < 100
O=C(c1cnc2c(c1)c(Cl)cn2-c1cncnc1)N1CCC(F)CC1 [MF-DH-145] | < 100
O=C(c1cnc2c(ccn2-c2cnccn2)c1Cl)N1CCC(F)CC1 [MF-DH-146] | < 100
O=C(c1cnc2c(c(Cl)cn2-c2cnccn2)c1Cl)N1CCC(F)CC1 [MF-DH-147] | < 100
Cc1nc2c(ccn2-c2cnccn2)cc1C(=O)N1CCC(F)CC1 [MF-DH-148] | ≥ 1000

SMILES | IC50 [nM]
Cc1nc2c(cc1C(=O)N1CCC(F)CC1)c(Cl)cn2-c1cnccn1 [MF-DH-149] | ≥ 1000
Cc1c(C(=O)N2CCC(F)CC2)cnc2c1ccn2-c1cnccn1 [MF-DH-150, (4-fluoropiperidin-1-yl)(4-methyl-1-(pyrazin-2-yl)-1H-pyrrolo[2,3-b]pyridin-5-yl)methanone] | < 100
COc1ccc(-n2ccc3cc(C(=O)N4CCC(F)CC4)cnc32)cn1 [MF-DH-157] | < 100
CC1(C)CCN(c2cnccn2)c2ccc(C(=O)N3CCC(F)CC3)cc21 [MF-DH-160, (4,4-dimethyl-1-(pyrazin-2-yl)-1,2,3,4-tetrahydroquinolin-6-yl)(4-fluoropiperidin-1-yl)methanone] | 100 to 1000
COc1ccc(-n2c(C)nc3cc(C(=O)N4CCC(F)CC4)cnc32)cc1 [MF-DH-176] | 100 to 1000
Cc1cn(-c2cncnc2)c2ccc(C(=O)N3CCC(F)CC3)cc12 [MF-DH-178, (4-fluoropiperidin-1-yl)(3-methyl-1-(pyrimidin-5-yl)-1H-indol-5-yl)methanone] | 100 to 1000
Cc1cn(-c2cnccn2)c2ccc(C(=O)N3CCC(F)CC3)cc12 [MF-DH-180, (4-fluoropiperidin-1-yl)(3-methyl-1-(pyrazin-2-yl)-1H-indol-5-yl)methanone] | 100 to 1000
COc1ccc(-c2cn(C)c3cc(C(=O)N4CCC(F)CC4)cnc23)cc1 [MF-DH-181, (4-fluoropiperidin-1-yl)(3-(4-methoxyphenyl)-1-methyl-1H-pyrrolo[3,2-b]pyridin-6-yl)methanone] | 100 to 1000
CCc1nc2cc(C(=O)N3CCC(F)CC3)cnc2n1-c1ccc(OC)cc1 [MF-DH-184] | 100 to 1000
COCCc1nc2cc(C(=O)N3CCC(F)CC3)cnc2n1-c1ccc(OC)cc1 [MF-DH-185] | ≥ 1000
COCCc1nc2cc(C(=O)N3CCC(F)CC3)ccc2n1-c1ccc(OC)cc1 [MF-DH-186] | 100 to 1000
COc1ccc(-n2cc(Cl)c3cc(C(=O)N4CCC(F)CC4)cnc32)cc1 [MF-DH-191, (3-chloro-1-(4-methoxyphenyl)-1H-pyrrolo[2,3-b]pyridin-5-yl)(4-fluoropiperidin-1-yl)methanone] | < 100
COc1ccc(-n2c(CCC(F)(F)F)nc3cc(C(=O)N4CCC(F)CC4)cnc32)cc1 [MF-DH-195] | 100 to 1000
COc1ccccc1-c1cn(C)c2cc(C(=O)N3CCC(F)CC3)cnc12 [MF-DH-200, (4-fluoropiperidin-1-yl)(3-(2-methoxyphenyl)-1-methyl-1H-pyrrolo[3,2-b]pyridin-6-yl)methanone] | ≥ 1000
COc1ccc(-c2c[nH]c3cc(C(=O)N4CCC(F)CC4)cnc23)cc1 [MF-DH-204] | 100 to 1000
O=C(c1cnc2c(c1)ncn2-c1ccc(OC(F)F)cc1)N1CCC(F)CC1 [MF-DH-222] | 100 to 1000
O=C(c1cnc2c(c1)ncn2-c1cccc(OC(F)(F)F)c1)N1CCC(F)CC1 [MF-DH-226] | 100 to 1000
CCC(CC)n1cnc2cc(C(=O)N3CCCCC3)cnc21 [MF-DH-236] | 100 to 1000
O=C(c1cnc2c(c1)ncn2-c1ccc(O)cc1)N1CCC(F)CC1 [MF-DH-238] | 100 to 1000
COc1ccc(-n2cc(Cl)c3cc(C(=O)N4CCCCC4)cnc32)cc1 [MF-DH-239] | < 100
O=C(c1cnc2c(c1)c(Cl)cn2-c1ccc2c(c1)OC(F)(F)O2)N1CCC(F)CC1 [MF-DH-250] | < 100
O=C(c1cnc2c(c1)c(Cl)cn2-c1ccc2c(c1)OC(F)(F)O2)N1CCCCC1 [MF-DH-251] | < 100
O=C(c1ccc2c(c1)c(Cl)nn2-c1cncc(Cl)c1)N1CCCCC1 [MF-DH-271] | 100 to 1000
COc1cccc(-n2nc(Cl)c3cc(C(=O)N4CCCCC4)ccc32)c1 [MF-DH-272] | 100 to 1000

SMILES | IC50 [nM]
COc1cccc(-n2cc(Cl)c3cc(C(=O)N4CCCCC4)cnc32)c1 [MF-DH-273] | < 100
O=C(c1cnc2c(c1)c(Cl)cn2-c1cncc(Cl)c1)N1CCCCC1 [MF-DH-274] | < 100
COc1cncc(-n2cc(Cl)c3cc(C(=O)N4CCCCC4)cnc32)c1 [MF-DH-275] | < 100
O=C(c1cnc2c(ccn2C2CCC(F)(F)CC2)c1)N1CCCCC1 [MF-DH-284] | ≥ 1000
COc1ccc(-n2ccc3cc(C(=O)N4CCC(F)CC4)cnc32)cc1 [MF-DH-285] | < 100
COc1ccc(-n2ccc3c(C#N)c(C(=O)N4CCCCC4)cnc32)cc1 [MF-DH-289, 1-(4-methoxyphenyl)-5-(piperidine-1-carbonyl)-1H-pyrrolo[2,3-b]pyridine-4-carbonitrile] | < 100
COc1ccc(-n2ccc3c(N)c(C(=O)N4CCCCC4)cnc32)cc1 [MF-DH-290, (4-amino-1-(4-methoxyphenyl)-1H-pyrrolo[2,3-b]pyridin-5-yl)(piperidin-1-yl)methanone] | < 100
COc1cccc(-n2ccc3cc(C(=O)N4CCCCC4)cnc32)c1 [MF-DH-294] | < 100
O=C(c1cnc2c(ccn2-c2cncc(Cl)c2)c1)N1CCCCC1 [MF-DH-295] | < 100
COc1cncc(-n2ccc3cc(C(=O)N4CCCCC4)cnc32)c1 [MF-DH-296] | < 100
COc1ccc(-n2ccc3cc(C(=O)N4CCCCC4)cnc32)cc1 [MF-DH-297] | < 100
N#Cc1ccc(-n2ccc3cc(C(=O)N4CCCCC4)cnc32)cc1 [MF-DH-298] | < 100
NC(=O)c1ccc(-n2ccc3cc(C(=O)N4CCCCC4)cnc32)cc1 [MF-DH-299] | < 100
N#Cc1cccc(-n2ccc3cc(C(=O)N4CCCCC4)cnc32)c1 [MF-DH-300] | < 100
NC(=O)c1cccc(-n2ccc3cc(C(=O)N4CCCCC4)cnc32)c1 [MF-DH-301] | < 100
CN(C)c1cccc(-n2ccc3cc(C(=O)N4CCCCC4)cnc32)c1 [MF-DH-302] | < 100
NCc1cccc(-n2ccc3cc(C(=O)N4CCCCC4)cnc32)c1 [MF-DH-303] | 100 to 1000
NCc1ccc(-n2ccc3cc(C(=O)N4CCCCC4)cnc32)cc1 [MF-DH-304] | < 100
CN(C)c1ccc(-n2ccc3cc(C(=O)N4CCCCC4)cnc32)cc1 [MF-DH-305] | < 100
CCOc1ccc(-n2ccc3cc(C(=O)N4CCCCC4)cnc32)cc1 [MF-DH-306] | < 100
O=C(c1cnc2c(ccn2-c2ccc(CO)cc2)c1)N1CCCCC1 [MF-DH-307] | < 100
O=C(c1cnc2c(ccn2-c2cccc(CO)c2)c1)N1CCCCC1 [MF-DH-308] | < 100
CS(=O)(=O)c1cccc(-n2ccc3cc(C(=O)N4CCCCC4)cnc32)c1 [MF-DH-309] | < 100
CS(=O)(=O)c1ccc(-n2ccc3cc(C(=O)N4CCCCC4)cnc32)cc1 [MF-DH-310] | < 100
